# Assay results: patent US8471063B2, “Michael systems as transglutaminase inhibitors” (Zedira GmbH, priority 2006, dated 2013)
# Legend:
# Format in all cases: biochemical
# [1] = target: T1, recombinant human tissue transglutaminase (His6-rh-TG2) (Homo sapiens, UniProt P21980); assay: Inactivation of human tissue transglutaminase, fluorescence assay, IC50; conditions: Table 2; 5 min preincubation, 37° C.
# T1 sequence (P21980 1-687): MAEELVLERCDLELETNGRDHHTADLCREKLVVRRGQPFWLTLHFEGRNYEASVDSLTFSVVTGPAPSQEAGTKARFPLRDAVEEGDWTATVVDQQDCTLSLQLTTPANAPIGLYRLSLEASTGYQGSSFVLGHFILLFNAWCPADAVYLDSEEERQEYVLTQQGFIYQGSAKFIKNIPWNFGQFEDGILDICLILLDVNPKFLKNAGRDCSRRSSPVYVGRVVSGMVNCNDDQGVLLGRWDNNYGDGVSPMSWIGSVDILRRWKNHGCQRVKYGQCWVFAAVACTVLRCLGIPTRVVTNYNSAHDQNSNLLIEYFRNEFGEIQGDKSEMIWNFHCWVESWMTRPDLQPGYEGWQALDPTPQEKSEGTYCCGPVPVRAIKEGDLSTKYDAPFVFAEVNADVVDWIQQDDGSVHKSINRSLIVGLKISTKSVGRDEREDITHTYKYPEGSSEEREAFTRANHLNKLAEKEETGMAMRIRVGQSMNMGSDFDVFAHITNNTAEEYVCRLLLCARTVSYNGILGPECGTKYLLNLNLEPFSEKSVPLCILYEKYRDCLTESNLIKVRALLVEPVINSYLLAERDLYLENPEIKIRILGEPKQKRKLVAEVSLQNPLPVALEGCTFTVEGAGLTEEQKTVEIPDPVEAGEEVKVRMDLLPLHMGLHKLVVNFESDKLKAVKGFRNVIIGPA
# Experimental: 250 μg of lyophilized his-tagged recombinant human tissue transglutaminase (His6-rh-TG2) are reconstituted by the addition of 150 μl of water (resulting buffer 50 mM of NaH2PO4, 150 mM of NaCl, pH=8).
# A 10 mM inhibitor stock solution in DMSO is prepared and diluted with buffer (50 mM of Tris-HCl, 10 mM of CaCl2, 5 mM of DTT, pH=7.5, respectively) to the 20-fold of the concentration desired for the inhibition mixture (at least 1/50 dilution resulting in 2% DMSO concentration).
# 900 μl of an assay solution composed of 55.56 mM of Tris, 11.11 mM of CaCl2, 0.11% PEG8000, 5.56 mM of DTT, 5.56 mM of glycine methyl ester and 50 μM of Abz-APE(CAD-DNP)QEA-OH, (patent number:), pH=7.5 are placed in a cuvette and brought to a temperature of 37° C. in the measuring cell of a spectrophotometer. 50 μl of the respective inhibitor solution are added to said solution (resulting in a concentration of less than 0.2% of DMSO in the mixture).
# 7 μl of the transglutaminase solution reconstituted above are diluted with 51 μl of buffer (50 mM of Tris, 100 mM of NaCl, 5 mM of DTT, pH=7.5). 50 μl of said enzyme solution (10 μg His6-rhTG2) are added to the assay solution containing the respective inhibitor concentration. The mixture is incubated for 5 min at 37° C. before the measurement is performed. λexc=313 nm and λem=418 nm, 15 min)
# The resulting enzyme activity was measured by analyzing the slope of the straight line obtained by the increase in fluorescence.
# DMSO is used instead of inhibitor stock solution in order to determine the non-inhibited enzyme activity. IC50 values are determined by plotting the resulting enzyme activity against the logarithm of the inhibitor concentration. IC50 is defined as the concentration of an inhibitor at which enzyme activity is reduced to 50% after 5 min of preincubation.
# [2] = target: T2, FXIII (Homo sapiens, UniProt P00488); assay: Transglutaminase inhibition, IC50 at FXIII; conditions: Table 2
# T2 sequence (P00488 1-732): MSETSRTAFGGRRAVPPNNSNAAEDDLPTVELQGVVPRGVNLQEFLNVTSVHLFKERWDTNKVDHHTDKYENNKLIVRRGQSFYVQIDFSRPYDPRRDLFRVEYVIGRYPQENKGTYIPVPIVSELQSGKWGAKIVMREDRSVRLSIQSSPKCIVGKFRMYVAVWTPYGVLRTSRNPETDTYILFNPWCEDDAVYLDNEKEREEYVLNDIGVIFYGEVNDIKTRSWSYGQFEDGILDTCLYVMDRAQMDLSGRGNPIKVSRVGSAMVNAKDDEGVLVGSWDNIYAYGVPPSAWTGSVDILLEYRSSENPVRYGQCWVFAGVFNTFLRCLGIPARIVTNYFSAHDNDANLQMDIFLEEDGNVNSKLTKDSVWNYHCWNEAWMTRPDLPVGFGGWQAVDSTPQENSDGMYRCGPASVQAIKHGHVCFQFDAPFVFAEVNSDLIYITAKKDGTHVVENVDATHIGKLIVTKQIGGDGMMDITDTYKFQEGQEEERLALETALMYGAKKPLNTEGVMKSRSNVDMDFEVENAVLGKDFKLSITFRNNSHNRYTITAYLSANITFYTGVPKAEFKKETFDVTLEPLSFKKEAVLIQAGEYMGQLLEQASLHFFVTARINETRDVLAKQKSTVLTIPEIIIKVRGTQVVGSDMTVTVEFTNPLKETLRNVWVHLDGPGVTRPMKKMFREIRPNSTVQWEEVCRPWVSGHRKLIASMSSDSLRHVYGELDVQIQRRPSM
# [3] = target: T3, TG1 (Homo sapiens, UniProt P22735); assay: Transglutaminase inhibition, IC50 at TG1; conditions: Table 2
# T3 sequence (P22735 1-817): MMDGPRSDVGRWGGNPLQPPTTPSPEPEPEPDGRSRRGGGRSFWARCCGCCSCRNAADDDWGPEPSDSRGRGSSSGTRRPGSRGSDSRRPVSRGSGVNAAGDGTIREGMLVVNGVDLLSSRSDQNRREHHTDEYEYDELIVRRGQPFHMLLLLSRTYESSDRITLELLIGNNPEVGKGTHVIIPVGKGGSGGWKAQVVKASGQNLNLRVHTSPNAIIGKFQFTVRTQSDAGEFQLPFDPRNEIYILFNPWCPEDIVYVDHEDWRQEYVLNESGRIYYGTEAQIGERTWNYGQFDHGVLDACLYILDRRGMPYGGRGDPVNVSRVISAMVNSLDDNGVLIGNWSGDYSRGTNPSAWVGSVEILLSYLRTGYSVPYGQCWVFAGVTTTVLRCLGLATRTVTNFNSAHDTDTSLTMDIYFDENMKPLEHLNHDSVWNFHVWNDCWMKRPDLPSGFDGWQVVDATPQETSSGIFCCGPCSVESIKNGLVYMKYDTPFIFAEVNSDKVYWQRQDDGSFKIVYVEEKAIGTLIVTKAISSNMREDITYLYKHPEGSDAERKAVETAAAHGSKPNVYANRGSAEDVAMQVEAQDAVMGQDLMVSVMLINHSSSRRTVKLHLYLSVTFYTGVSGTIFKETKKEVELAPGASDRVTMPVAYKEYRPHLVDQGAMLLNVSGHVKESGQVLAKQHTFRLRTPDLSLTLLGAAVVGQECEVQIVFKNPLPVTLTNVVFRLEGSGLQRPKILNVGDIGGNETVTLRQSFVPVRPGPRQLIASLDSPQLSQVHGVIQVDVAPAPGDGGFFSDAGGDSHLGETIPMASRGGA
Structure (SMILES),IC50 [1] [nM],IC50 [2] [nM],IC50 [3] [nM]
"COC(=O)[C@H](CC(C)C)NC(=O)[C@@H]1CCCN1C(=O)[C@H](CCC(N)=O)NC(=O)[C@H](CC/C=C/S(C)(=O)=O)NC(=O)OCc1ccccc1 [Compound 3.2.1, N^α-benzyloxycarbonyl-{[(E)-(L)-2-amino-6-methanesulfonyl]-hex-5-enyl}-L-glutaminyl-L-prolinyl-L-leucine methyl ester]",54,> 100000,250
COC(=O)[C@H](CC(C)C)NC(=O)[C@@H]1CCCN1C(=O)[C@H](CCC(N)=O)NC(=O)[C@H](CC/C=C/S(=O)(=O)N(C)C)NC(=O)OCc1ccccc1 [Compound 3.2.2],760,> 100000,1300
"CC(C)OC(=O)C=CCCC(NC(=O)OCc1ccccc1)C(=O)NC(Cc1ccc(F)cc1)C(=O)N1CCCC1C(=O)O [Compound 3.2.7, N^α-benzyloxycarbonyl)-{[(E)-(L)-6-amino-hept-2-ene-dicarboxylic acid]-1-isopropanoyl}-L-(p-fluoro-phenylalaninyl)-L-proline]",1500,> 100000,3700
CCOC(=O)C(=O)/C=C/CC[C@H](NC(=O)OCc1ccccc1)C(=O)N[C@@H](Cc1ccccc1)C(=O)OC [Compound 3.2.9],3800,> 100000,530
